Publication PMC10455806, “New Sorbicillinoids from the Mangrove Endophytic Fungus Trichoderma reesei SCNU-F0042” (Marine Drugs, 2023)
Where two headings read alike, the source gives them in different places.

How the values were obtained:
Type in all cases: cell-based
SARS-CoV-2 (BA.2) = test: microbe, parasite or virus in culture; details: for EC50: 48 h, mean from three parallel experiments, read-out: Inhibition of SARS-CoV-2 Viruses (EC50/μM)
[1] = Cell viability assay (MTT method); details: human
Procedure: (§1) […] Tested cell lines were cultured in Dulbecco’s modified Eagle’s medium (DMEM) (Invitrogen, Carlsbad, CA, USA) supplemented with 5% fetal bovine serum (Hyclone, Logan, UT, USA), 2 mM L-glutamine, […] streptomycin, and 100 units/mL penicillin (Invitrogen). The cultures were maintained at 37 °C in a humidified atmosphere of 5% CO2.

HEK 293T-hACE2 cells = test: Cell viability assay (MTT method); details: at 80 μM, 293T cells
Procedure: as §1

[2] = Severe acute respiratory syndrome coronavirus 2, HEK-293T, […]
[3] = 293T cell, MTT, mean from three parallel experiments, read-out: Cytotoxicity for 293T Cell (IC50/μM)

SMILES	antiviral activity against SARS-CoV-2 (SARS-CoV-2 (BA.2))	EC50 (SARS-CoV-2 (BA.2); [2]) [µM]	IC50 [1, 3] [µM]	cytotoxicity (HEK 293T-hACE2 cells)	IC50 (SARS-CoV-2 (BA.2); Severe acute respiratory syndrome coronavirus 2, HEK-293T, […], read-out: IC50 (positive control, SARS-CoV-2 assay)) [µM]	IC50 [1] [µM]
CC=CC=CC(=O)C1C(C2(C)OC(=O)C(C)=C2O)C2C(=C(O)C=CC=CCO)C(=O)C1(C)C(=O)C2(C)O (stereo not drawn) [Compound 1, 14-hydroxybislongiquinolide]	no activity	> 80	> 80			
CC=CC=CC(O)=C1C(=O)C2(C)C(=O)C(C)(O)C1C(C1(C)OC(=O)C(C)=C1O)C2C(=O)C=CC=CCO (stereo not drawn) [Compound 2, 20-hydroxybislongiquinolide]		29	> 80	without cytotoxicity		
CC1=C(O)C(C)(C2C3C(=C(O)C=CC=CCO)C(=O)C(C)(C(=O)C3(C)O)C2C(=O)C=CC=CCO)OC1=O (stereo not drawn) [Compound 3, 14, 20-dihydroxybislongiquinolide]	no activity	> 80	> 80			
CC(=O)Oc1cc(/C=C/C=C/C(=O)O)oc(=O)c1C [Compound 5, Acetylchrysopyrone B]	no activity	> 80	> 80			
CCC(CC)COC(=O)[C@H](C)N[P@](=O)(OC[C@H]1O[C@@](C#N)(c2ccc3c(N)ncnn23)[C@H](O)[C@@H]1O)Oc1ccccc1 [Remdesivir, reference compound]		1.2			1.2	> 80
